Measurements taken from article PMC9233675, “Ru(II) photocages enable precise control over enzyme activity with red light” (Nature Communications, 2022).
Values joined by “and” are separate entries in the source; they are usually repeats but may differ in a detail not shown here. Equal entries are not always repeated. Where two headings read alike, the source gives them in different places.

How the values were obtained:
CYP19A1 = biological target: T1, CYP19A1 (Homo sapiens, UniProt P11511); assay: In cell activity assay for CYP19A1 (dibenzylfluorescein conversion, HEK293 T-Rex cells); assay type: cell-based; settings: for % Enzyme Activity: CYP19A1, dark; for SI (1B1:19A1): ratio of IC50 CYP19A1 to CYP1B1, for complexes 4–6 IC50 (light)
T1 sequence (P11511 1-503): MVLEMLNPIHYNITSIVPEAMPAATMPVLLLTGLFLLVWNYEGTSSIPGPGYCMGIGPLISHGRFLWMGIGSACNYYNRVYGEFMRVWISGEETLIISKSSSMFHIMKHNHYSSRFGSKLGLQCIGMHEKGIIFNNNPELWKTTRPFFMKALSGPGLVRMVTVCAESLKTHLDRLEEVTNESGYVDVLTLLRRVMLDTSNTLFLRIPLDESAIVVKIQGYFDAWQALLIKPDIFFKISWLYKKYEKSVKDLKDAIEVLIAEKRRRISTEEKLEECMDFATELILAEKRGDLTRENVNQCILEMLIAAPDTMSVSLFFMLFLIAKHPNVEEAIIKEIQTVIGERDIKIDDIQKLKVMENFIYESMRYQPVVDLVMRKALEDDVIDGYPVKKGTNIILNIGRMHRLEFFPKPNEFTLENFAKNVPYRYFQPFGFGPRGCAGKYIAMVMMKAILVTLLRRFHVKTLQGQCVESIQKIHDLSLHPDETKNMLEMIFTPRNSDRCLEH
Experimental: Thus, the activity against CYP19A1 was evaluated using a recently developed in-cell fluorometric assay.
REE or DBF was added as described above.

CYP1A1 = biological target: T2, CYP1A1 (Homo sapiens, UniProt P04798); assay: In cell activity assay for CYP1A1 (7-ethoxyresorufin conversion, HEK293 T-Rex cells); settings: for % Enzyme Activity: CYP1A1, dark; for SI (1B1:1A1): ratio of IC50 CYP1A1 to CYP1B1, for complexes 4–6 the IC50 (light) values were used; for IC50: REE
T2 sequence (P04798 1-512): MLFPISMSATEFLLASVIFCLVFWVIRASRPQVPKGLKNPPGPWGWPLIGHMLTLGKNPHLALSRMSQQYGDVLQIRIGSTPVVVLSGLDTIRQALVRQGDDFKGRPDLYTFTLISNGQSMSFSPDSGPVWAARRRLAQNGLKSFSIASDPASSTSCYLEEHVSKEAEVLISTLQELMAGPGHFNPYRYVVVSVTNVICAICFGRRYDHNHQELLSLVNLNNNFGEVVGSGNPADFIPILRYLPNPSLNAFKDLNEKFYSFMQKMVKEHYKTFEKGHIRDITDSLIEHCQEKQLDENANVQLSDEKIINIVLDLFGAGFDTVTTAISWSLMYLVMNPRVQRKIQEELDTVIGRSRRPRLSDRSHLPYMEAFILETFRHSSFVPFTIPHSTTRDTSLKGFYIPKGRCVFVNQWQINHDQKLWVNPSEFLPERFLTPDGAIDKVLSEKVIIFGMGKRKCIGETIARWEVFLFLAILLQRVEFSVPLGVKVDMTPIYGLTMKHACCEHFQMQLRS
Excerpt: A stable HEK cell line was created with CYP1B1 expression under the control of tetracycline to facilitate regulated and titratable expression (see the Methods section for more details). A cell line was also created for CYP1A1 as a counter screen to evaluate selectivity. […] The fluorogenic substrate, 7-ethoxyresorufin (REE), is a validated substrate for both CYPs and was used in both assays. Cytochrome P450 oxidoreductase (POR) is the required reductase partner for CYPs, and was also overexpressed in these systems to improve catalytic efficiency and the resulting signal for the assay.
Both the CYP and POR expression was under the control of the TetO2 inducible CMV promoter[26].
Cell lines were generated in the HEK293 T-Rex cell line. Following transfection, cells were selected with 500 μg/mL Zeocin, and 7.5 μg/mL Blasticidin to create a stable pool. Inducible expression of CYP and POR was confirmed by immunoblot. […] The lines were maintained with 250 μg/mL Zeocin and 7.5 μg/mL Blasticidin to ensure continued selective pressure.
Cell lines were seeded onto Geltrex coated 96-well plates at 40,000 cells/well, and grown overnight in DMEM media containing 1 μg/mL tetracycline. The media was then replaced with Opti-MEM supplemented with 2% FBS and 1 μg/mL tetracycline. Compounds were serially diluted in Opti-MEM supplemented with 2% FBS and 1 μg/mL tetracycline and an equal volume of compound added to the cells (n = 3). Following a 1 h incubation, resorufin ethyl ether (REE; for CYP1B1 and 1A1) or dibenzylfluorescein (DBF; for 19A1) was added to the cells for a total concentration of 5 μM for REE and 1 μM for DBF. […] Dose–response curves were generated in Prism and normalized using the no-compound control (set as 100% activity) and the no-cell control (set as 0% activity; this value in the raw data reflects the background fluorescence of the dye alone).
For the light-activated compounds, the experiment was modified as follows: Cells were seeded and grown overnight as described above. Media was replaced with L-15 containing 1 μg/mL tetracycline; L-15 media was used in place of opti-MEM™ to maintain CO2 outside the incubator, and to prevent cellular damage from light. Compounds were serially diluted in L-15 with 1 μg/mL tetracycline and added to the cells followed by a 1 h incubation. […] REE or DBF was added as described above.

[1] = Dark, conversion of dibenzylfluorescein (DBF), read-out: IC50 CYP19A1 Dark
[2] = Light: 660 nm, 58.7 J/cm^2, DBF, read-out: IC50 CYP19A1 Light
[3] = read-out: IC50 CYP1A1 Dark, Dark, n = 3
[4] = read-out: IC50 CYP1A1 Light, Light: 660 nm, 58.7 J/cm^2
[5] = at concentrations ≥10 μM (so in the source)

## COc1ccc(/C=C/c2cc[n+]([Ru-4]345([n+]6ccccc6-c6cccc([n+]63)-c3cccc[n+]34)[n+]3c(cc(C(=O)[O-])c4ccccc43)-c3cc(C(=O)[O-])c4ccccc4[n+]35)cc2)c(OC)c1 [Compound 6]
CYP19A1; Log Conc 0.045757
  % Enzyme Activity: 105.406% and 101.538% and 104.022%
CYP19A1; Log Conc 0.522879
  % Enzyme Activity: 104.302% and 98.6869% and 100.038%
CYP19A1; Log Conc 1
  % Enzyme Activity: 98.3957% and 97.4287% and 99.555%
CYP19A1; Log Conc 1.47712
  % Enzyme Activity: 84.792% and 87.3743% and 76.9903%
CYP19A1; Log Conc -0.43136
  % Enzyme Activity: 108.571% and 102.071% and 105.115%
CYP19A1; Log Conc -0.90849
  % Enzyme Activity: 106.835% and 107.302% and 104.318%
CYP19A1; Log Conc -1.38561
  % Enzyme Activity: 104.082% and 105.269% and 104.335%
CYP19A1; Log Conc -1.86273
  % Enzyme Activity: 107.692% and 92.0059% and 100.302%
CYP19A1; [1]
  IC50: > 30 µM
CYP19A1; [2]
  IC50: 18.8 µM
CYP19A1
  SI (1B1:19A1): 62,800
CYP1A1; Log Conc 0.39794
  % Enzyme Activity: 91.0522% and 92.8898%
CYP1A1; Log Conc 1
  % Enzyme Activity: 101.782% and 110.804%
CYP1A1; Log Conc -0.20412
  % Enzyme Activity: 95.4892% and 97.456%
CYP1A1; Log Conc -0.80618
  % Enzyme Activity: 104.418% and 113.985%
CYP1A1; Log Conc -1.40824
  % Enzyme Activity: 109.608% and 108.283%
CYP1A1; Log Conc -2.0103
  % Enzyme Activity: 108.509% and 109.086%
CYP1A1; Log Conc -2.61236
  % Enzyme Activity: 100.346% and 103.098%
CYP1A1; Log Conc -3.21442
  % Enzyme Activity: 102.096% and 97.9039%
CYP1A1
  SI (1B1:1A1): >100,000
CYP1A1; [3]
  IC50: > 30 µM
CYP1A1; [4]
  IC50: > 30 µM

## COc1ccc(/C=C/c2cc[n+]([Ru-4]345([n+]6ccccc6-c6cccc([n+]63)-c3cccc[n+]34)[n+]3c(cc(C(=O)[O-])c4ccccc43)-c3cc(C(=O)[O-])c4ccccc4[n+]35)cn2)c(OC)c1 [Compound 5]
CYP19A1; [1]
  IC50: 28.3 µM
CYP19A1; [2]
  IC50: 11.2 µM
CYP19A1; [5]
  impact on CYP19A1: no impact
CYP19A1
  SI (1B1:19A1): 660
CYP1A1; [5]
  impact on CYP1A1: no impact
CYP1A1
  SI (1B1:1A1): 460
CYP1A1; [3]
  IC50: 40.9 µM
CYP1A1; [4]
  IC50: 7.82 µM
